Test results taken from patent US8293979B2, “Weed controller metabolism proteins, genes, thereof and use of the same” (Sumitomo Chemical Company, Limited, priority 2001, dated 2012).

Columns and labels:
[1] = test system: leaf pieces of the tobacco to which the present invention DNA (A1)S has been introduced; assay: Evaluation of the resistance utilizing a leaf piece of the present invention DNA (A1)S transgenic tobacco; format: cell-based; settings: 1 point continuously grew, 0.5 halfly withered, 0 turned white and withered
Protocol: Next, other than culturing overnight the transgenic agrobacterium bearing the above plasmid at 30° C. in LB liquid medium containing 25 mg/L kanamycin, said agrobacterium were utilized to introduce genes into tobacco according to the method described in Example 19. There were obtained, respectively, transgenic tobaccos which have incorporated the T-DNA region of pBI-NdG6-rSt-657soy or pBI-NdG6-rSt12-657soy.
Leaves were taken from 35 transgenic tobaccos obtained in Example 47(9). Each leaf was divided into pieces in which each piece was 5 to 7 mm wide. Leaf pieces were planted onto MS agar medium containing 0, 0.05, 0.1 or 0.2 mg/L of compound (II) and cultured in the light at room temperature. On the 11th day of culturing, the herbicidal damage of each of the leaf pieces was observed. Further, leaf pieces were planted onto MS agar mediums containing 0, 0.01, 0.02, 0.05 or 0.1 mg/L of compound (XII) and cultured in the light at room temperature. On the 7th day of culturing, the herbicidal damage of each of the leaf pieces was observed. […] An average score for each group was determined by scoring 1 point to a leaf piece that continuously grew, 0.5 points to a halfly withered leaf piece in which chemical damage was observed, and 0 points to a leaf piece which turned white and had withered. […]

[2] = test system: present invention protein (A2); assay: Metabolism of compounds by the present invention protein (A2), reaction solution, HPLC; format: in vitro ADME, Saccharopolyspora taberi JCM 9383t; settings: 5 ppm of compound, components A, B, C, 20 μl supernatant fraction of Example 7(2), 30° C. for 10 minutes
present protein (A10) = target: T1, present protein (A10) (Streptomyces griseolus, UniProt P18326); format: in vitro ADME, Streptomyces griseolus ATCC 11796; settings: 5 ppm of compound, components A, B, C, 20 μl supernatant fraction of Example 10(2), 30° C. for 10 minutes, HPLC
T1 construct: made in house; host or cells: E. coli JM109 carrying pKSN11796 or pKSN11796F; 150,000 x g supernatant (crude extract)

[3] = test system: present invention protein (A12); assay: Metabolism of compounds by the present invention protein (A12), reaction solution, HPLC; format: in vitro ADME, Streptomyces tsusimaensis IFO 13782; settings: 5 ppm of compound, components A, B, C, 20 μl supernatant fraction of Example 34(2), 30° C. for 10 minutes
[4] = test system: present invention protein (A13); assay: Metabolism of compounds by the present invention protein (A13), reaction solution, HPLC; format: in vitro ADME, Streptomyces thermocoerulesces IFO 14273t; settings: 5 ppm of compound, components A, B, C, 20 μl supernatant fraction of Example 36(2), 30° C. for 10 minutes
[5] = test system: present invention protein (A14); assay: Metabolism of compounds by the present invention protein (A14), reaction solution, HPLC; format: in vitro ADME, Streptomyces glomerochromogenes IFO 13673t; settings: 5 ppm of compound, components A, B, C, 20 μl supernatant fraction of Example 38(2), 30° C. for 10 minutes
[6] = test system: present invention protein (A17); assay: Metabolism of compounds by the present invention protein (A17), reaction solution, HPLC; format: in vitro ADME, Streptomyces griseus ATCC 10137; settings: 12.5 ppm of compound, components A, B, C, 20 μl supernatant fraction of Example 51(2), 30° C. for 10 minutes
[7] = test system: present invention protein (A18); assay: Metabolism of compounds by the present invention protein (A18), reaction solution, HPLC; format: in vitro ADME, Streptomyces achromogenes IFO 12735; settings: 12.5 ppm of compound, components A, B, C, 20 μl supernatant fraction of Example 53(2), 30° C. for 10 minutes
[8] = test system: present invention protein (A25); assay: Metabolism of compounds by the present invention protein (A25), reaction solution, HPLC; format: in vitro ADME, Streptomyces steffisburgensis IFO 13446T; settings: 12.5 ppm of compound, components A, B, C, 20 μl supernatant fraction of Example 67(2), 30° C. for 10 minutes

T1 sequence (P18326 whole entry H308Q): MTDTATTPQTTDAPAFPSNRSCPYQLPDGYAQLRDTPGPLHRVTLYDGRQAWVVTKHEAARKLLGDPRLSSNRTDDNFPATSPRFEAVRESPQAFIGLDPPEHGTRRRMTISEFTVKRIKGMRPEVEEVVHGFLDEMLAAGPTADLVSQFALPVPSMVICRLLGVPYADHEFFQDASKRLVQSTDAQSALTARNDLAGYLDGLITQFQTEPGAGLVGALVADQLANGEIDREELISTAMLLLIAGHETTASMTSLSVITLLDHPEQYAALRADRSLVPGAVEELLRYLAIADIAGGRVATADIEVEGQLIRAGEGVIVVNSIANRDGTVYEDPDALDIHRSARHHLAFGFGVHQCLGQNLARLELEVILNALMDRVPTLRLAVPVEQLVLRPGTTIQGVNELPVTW

Row | Structure (SMILES) | average score of leaf pieces compared with the wild type tobacco ([1]; MS agar medium containing 0, 0.05, 0.1 or 0.2 mg/L of compound (II), 11th day) | average score of leaf pieces compared with the wild type tobacco ([1]; MS agar mediums containing 0, 0.01, 0.02, 0.05 or 0.1 mg/L of compound (XII), 7th day) | concentration of the compound detected from metabolism solution (A2) compared to control solution (A2) [2] | concentration of the compound detected from metabolism solution (A10) compared to control solution (A10) (present protein (A10)) | concentration of the compound detected from metabolism solution (A12) compared to control solution (A12) [3] | concentration of the compound detected from metabolism solution (A13) compared to control solution (A13) [4] | concentration of the compound detected from metabolism solution (A14) compared to control solution (A14) [5] | concentration of the compound detected from metabolism solution (A17) compared to control solution (A17) [6] | concentration of the compound detected from metabolism solution (A18) compared to control solution (A18) [7] | concentration of the compound detected from metabolism solution (A25) compared to control solution (A25) [8]
1 | C[C@@H](Oc1cc(-n2c(=O)cc(C(F)(F)F)n(C)c2=O)c(F)cc1Cl)C(=O)O [compound (II)] | higher |  |  |  |  |  |  |  |  | 
2 | Cn1c(C(F)(F)F)cc(=O)n(-c2cc(Oc3cccnc3OCC(=O)O)c(Cl)cc2F)c1=O [compound (XII)] |  | higher | lower | lower | lower | lower | lower | lower | lower | lower
3 | Cn1c(C(F)(F)F)cc(=O)n(-c2cc(Oc3ccccc3OCC(=O)O)c(Cl)cc2F)c1=O [compound (XIII)] |  |  | lower | lower | lower | lower | lower | lower | lower | lower
